Literature values in US8877698B2, “Method and composition for disinfecting hard surfaces” (priority 2001, dated 2014).

System: Mycobacterium tuberculosis var. bovis and poliovirus

For `CCO` [ethanol], the “concentrations needed to kill resistant organisms” value is given as 70-90%.
